PubChem BioAssay AID1259411 (Chemical Carcinogenesis Research Information System (CCRIS), 2018)
Active and inactive are the calls of the source. How the calls were made is not given here.

Tested on: rodent carcinogenicity bioassays, tumor incidence
Experiment: CCRIS carcinogenicity studies
Summary of the method: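 Archive of carcinogenicity, mutagenicity, tumor promotion and tumor inhibition results drawn from journals, NCI reports and other sources, expert-reviewed; covers 1985-2011 and is no longer updated.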

Question: For `O=C1CN(/N=C/c2ccc([N+](=O)[O-])o2)C(=O)N1`, which carcinogen call (Species: MOUSE, Strain/Sex: B6C3F1/FEMALE, Route: ORAL, Dose: 0, 1300, 2500 PPM IN FEED FOR 103 WK (STUDY DURATION: 105 WK), Dose: 0, 1300, 2500 PPM IN FEED FOR 103 WK (STUDY DURATION: 105 WK), Tumor Site: Type of Lesion: OVARY: TUBULAR ADENOMA, MIXED TUMOR (BENIGN)) is on record?
Answer: active; positive

Question: What about the carcinogen call (Species: MOUSE, Strain/Sex: B6C3F1/MALE, Route: ORAL, Dose: 0, 1300, 2500 PPM IN FEED FOR 103 WK (STUDY DURATION: 105 WK), Dose: 0, 1300, 2500 PPM IN FEED FOR 103 WK (STUDY DURATION: 105 WK)) of the same molecule?
Answer: inactive; negative

Question: And the carcinogen call (Species: MOUSE, Strain/Sex: BDF1/FEMALE, Route: ORAL, Dose: 0, 0.075, 0.3% IN DIET BEGINNING AT 9 WK OF AGE AND CONTINUING FOR DURATION OF STUDY (STUDY DURATION: 24 MO), Dose: 0, 0.075, 0.3% IN DIET BEGINNING AT 9 WK OF AGE AND CONTINUING FOR DURATION OF STUDY (STUDY DURATION: 24 MO))?
Answer: inactive; negative

Question: And the carcinogen call (Species: MOUSE, Strain/Sex: BDF1/MALE, Route: ORAL, Dose: 0, 0.075, 0.3% IN DIET BEGINNING AT 9 WK OF AGE AND CONTINUING FOR DURATION OF STUDY (STUDY DURATION: 24 MO), Dose: 0, 0.075, 0.3% IN DIET BEGINNING AT 9 WK OF AGE AND CONTINUING FOR DURATION OF STUDY (STUDY DURATION: 24 MO))?
Answer: inactive; negative

Question: And the carcinogen call (Species: MOUSE, Strain/Sex: ICR/MALE, FEMALE, Route: TRANSPLACENTAL, Dose: 0, 75 UG/G ADMINISTERED SUBCUTANEOUSLY TO MOTHERS ON DAYS 13, 15 AND 17 OF GESTATION (STUDY DURATION: 33 WK), Tumor Site: Type of Lesion: LUNG: PAPILLARY ADENOMA)?
Answer: active; positive

Question: What about the carcinogen call (Species: MOUSE, Strain/Sex: SWISS/FEMALE, Route: ORAL, Dose: 0, 0.03% IN DIET FOR 441 D, THEN 0.04% IN DIET FOR DURATION OF STUDY (TOTAL AVERAGE DOSE: 58.76 MG/KG) (STUDY DURATION:, Dose: 0, 0.03% IN DIET FOR 441 D, THEN 0.04% IN DIET FOR DURATION OF STUDY (TOTAL AVERAGE DOSE: 58.76 MG/KG) (STUDY DURATION:) of the same molecule?
Answer: inactive; negative

Question: And the carcinogen call (Species: MOUSE, Strain/Sex: SWISS/FEMALE, Route: ORAL, Dose: 0, 0.06% IN DIET FOR 441 D, THEN 0.075% IN DIET FOR DURATION OF STUDY (TOTAL AVERAGE DOSE: 115.59 MG/KG) (STUDY DURATION, Dose: 0, 0.06% IN DIET FOR 441 D, THEN 0.075% IN DIET FOR DURATION OF STUDY (TOTAL AVERAGE DOSE: 115.59 MG/KG) (STUDY DURATION)?
Answer: inactive; negative

Question: What about the carcinogen call (Species: MOUSE, Strain/Sex: SWISS/FEMALE, Route: ORAL, Dose: 0, 0.13% IN DIET FOR 441 D, THEN 0.155% IN DIET FOR DURATION OF STUDY (TOTAL AVERAGE DOSE: 224.07 MG/KG) (STUDY DURATION, Dose: 0, 0.13% IN DIET FOR 441 D, THEN 0.155% IN DIET FOR DURATION OF STUDY (TOTAL AVERAGE DOSE: 224.07 MG/KG) (STUDY DURATION) of the same molecule?
Answer: inactive; negative

Question: What about the carcinogen call (Species: MOUSE, Strain/Sex: SWISS/MALE, Route: ORAL, Dose: 0, 0.03% IN DIET FOR 441 D, THEN 0.04% IN DIET FOR DURATION OF STUDY (TOTAL AVERAGE DOSE: 43.63 MG/KG) (STUDY DURATION:, Dose: 0, 0.03% IN DIET FOR 441 D, THEN 0.04% IN DIET FOR DURATION OF STUDY (TOTAL AVERAGE DOSE: 43.63 MG/KG) (STUDY DURATION:) of the same molecule?
Answer: inactive; negative

Question: And the carcinogen call (Species: MOUSE, Strain/Sex: SWISS/MALE, Route: ORAL, Dose: 0, 0.06% IN DIET FOR 441 D, THEN 0.075% IN DIET FOR DURATION OF STUDY (TOTAL AVERAGE DOSE: 83.59 MG/KG) (STUDY DURATION:, Dose: 0, 0.06% IN DIET FOR 441 D, THEN 0.075% IN DIET FOR DURATION OF STUDY (TOTAL AVERAGE DOSE: 83.59 MG/KG) (STUDY DURATION:)?
Answer: inactive; negative

Question: And the carcinogen call (Species: MOUSE, Strain/Sex: SWISS/MALE, Route: ORAL, Dose: 0, 0.13% IN DIET FOR 441 D, THEN 0.155% IN DIET FOR DURATION OF STUDY (TOTAL AVERAGE DOSE: 181.14 MG/KG) (STUDY DURATION, Dose: 0, 0.13% IN DIET FOR 441 D, THEN 0.155% IN DIET FOR DURATION OF STUDY (TOTAL AVERAGE DOSE: 181.14 MG/KG) (STUDY DURATION, Tumor Site: Type of Lesion: HEMATOPOIETIC SYSTEM: MALIGNANT LYMPHOMA)?
Answer: active; positive

Question: What about the carcinogen call (Species: RAT, Strain/Sex: F344/FEMALE, Route: ORAL, Dose: 0, 600, 1300 PPM IN FEED FOR 103 WK (STUDY DURATION: 105 WK), Dose: 0, 600, 1300 PPM IN FEED FOR 103 WK (STUDY DURATION: 105 WK)) of the same molecule?
Answer: inactive; negative

Question: What about the carcinogen call (Species: RAT, Strain/Sex: F344/MALE, Route: ORAL, Dose: 0, 0.187% IN DIET FOR 104 WK (STUDY DURATION: 104 WK)) of the same molecule?
Answer: inactive; negative

Question: What about the carcinogen call (Species: RAT, Strain/Sex: F344/MALE, Route: ORAL, Dose: 0, 1300, 2500 PPM IN FEED FOR 103 WK (STUDY DURATION: 105 WK), Dose: 0, 1300, 2500 PPM IN FEED FOR 103 WK (STUDY DURATION: 105 WK), Tumor Site: Type of Lesion: KIDNEY: TUBULAR ADENOMA OR CARCINOMA, SUBCUTANEOUS TISSUE: FIBROMA, FIBROMA OR FIBROSARCOMA) of the same molecule?
Answer: active; positive

Question: What about the carcinogen call (Species: RAT, Strain/Sex: SPRAGUE-DAWLEY/FEMALE, Route: ORAL, Dose: 0, 0.188% IN DIET FOR 2 YR (STUDY DURATION: 2 YR), Tumor Site: Type of Lesion: MAMMARY GLAND: FIBROADENOMA) of the same molecule?
Answer: active; positive

Question: And the carcinogen call (Species: RAT, Strain/Sex: STRAIN-CD/FEMALE, Route: ORAL, Dose: 0, 12, 24, 48 MG/KG BW IN DIET FOR 24 MO (STUDY DURATION: 24 MO), Dose: 0, 12, 24, 48 MG/KG BW IN DIET FOR 24 MO (STUDY DURATION: 24 MO))?
Answer: inactive; negative

Question: And the carcinogen call (Species: RAT, Strain/Sex: STRAIN-CD/MALE, Route: ORAL, Dose: 0, 12, 24, 48 MG/KG BW IN DIET FOR 24 MO (STUDY DURATION: 24 MO), Dose: 0, 12, 24, 48 MG/KG BW IN DIET FOR 24 MO (STUDY DURATION: 24 MO))?
Answer: inactive; negative

Question: For `O=[N+]([O-])c1ccc(N=Nc2c(O)ccc3ccccc23)c(Cl)c1`, which carcinogen call (Species: MOUSE, Strain/Sex: ICR/FEMALE, Route: DERMAL, Dose: 0, 1 MG IN 0.1 ML DISTILLED WATER 2/WK FOR A MEAN TOTAL DOSE OF 117.1 MG (STUDY DURATION: 18 MO)) is on record?
Answer: inactive; negative

Question: What about the carcinogen call (Species: MOUSE, Strain/Sex: ICR/MALE, Route: DERMAL, Dose: 0, 1 MG IN 0.1 ML DISTILLED WATER 2/WK FOR A MEAN TOTAL DOSE OF 117.1 MG (STUDY DURATION: 18 MO)) of the same molecule?
Answer: inactive; negative

Question: How did the carcinogen call (Species: MOUSE, Strain/Sex: B6C3F1/FEMALE, Route: INHALATION, Dose: 0, 312, 625, 1250 PPM 6 HR/D 5 D/WK FOR 95-96 WK (STUDY DURATION: 96 WK), Dose: 0, 312, 625, 1250 PPM 6 HR/D 5 D/WK FOR 95-96 WK (STUDY DURATION: 96 WK), Tumor Site: Type of Lesion: LIVER: HEMANGIOMA, HEMANGIOSARCOMA, HEPATOCELLULAR CARCINOMA, HEMATOPOIETIC SYSTEM: HISTIOCYTIC SARCOMA) turn out when `FC(F)=C(F)F` was run?
Answer: active; positive

Question: What about the carcinogen call (Species: MOUSE, Strain/Sex: B6C3F1/MALE, Route: INHALATION, Dose: 0, 312, 625, 1250 PPM 6 HR/D 5 D/WK FOR 95-96 WK (STUDY DURATION: 96 WK), Dose: 0, 312, 625, 1250 PPM 6 HR/D 5 D/WK FOR 95-96 WK (STUDY DURATION: 96 WK), Tumor Site: Type of Lesion: LIVER: HEMANGIOMA, HEMANGIOSARCOMA, HEPATOCELLULAR CARCINOMA, HEMATOPOIETIC SYSTEM: HISTIOCYTIC SARCOMA) of the same molecule?
Answer: active; positive

Question: What about the carcinogen call (Species: RAT, Strain/Sex: F344/FEMALE, Route: INHALATION, Dose: 0, 312, 625, 1250 PPM 6 HR/D 5 D/WK FOR 104 WK (STUDY DURATION: 106 WK), Dose: 0, 312, 625, 1250 PPM 6 HR/D 5 D/WK FOR 104 WK (STUDY DURATION: 106 WK), Tumor Site: Type of Lesion: KIDNEY(RENAL TUBULE): ADENOMA, ADENOMA OR CARCINOMA, LIVER: HEMANGIOSARCOMA, HEPATOCELLULAR ADENOMA, HEPATOCELLULAR CARC) of the same molecule?
Answer: active; positive

Question: What about the carcinogen call (Species: RAT, Strain/Sex: F344/MALE, Route: INHALATION, Dose: 0, 156, 312, 625 PPM 6 HR/D 5 D/WK FOR 104 WK (STUDY DURATION: 106 WK), Dose: 0, 156, 312, 625 PPM 6 HR/D 5 D/WK FOR 104 WK (STUDY DURATION: 106 WK), Tumor Site: Type of Lesion: KIDNEY(RENAL TUBULE): ADENOMA, LIVER: HEPATOCELLULAR CARCINOMA, HEPATOCELLULAR ADENOMA OR CARCINOMA) of the same molecule?
Answer: active; positive

Question: Which carcinogen call (Species: MOUSE, Route: INTRAPERITONEAL, Tumor Site: Type of Lesion: LUNG) does the source give for `COS(C)(=O)=O` here?
Answer: active; positive

Question: And the carcinogen call (Species: MOUSE, Route: ORAL, Tumor Site: Type of Lesion: LUNG, THYMUS GLAND)?
Answer: active; positive

Question: And the carcinogen call (Species: RAT, Strain/Sex: SPRAGUE-DAWLEY/MALE, Route: INHALATION, Dose: 0, 50 PPM 6 HR/D 5 D/WK FOR 30 D (STUDY DURATION: LIFETIME), Tumor Site: Type of Lesion: NASAL CAVITY: TUMORS)?
Answer: active; positive
